How the values were obtained:
[1] = target: T1, KRAS G12D (Homo sapiens, UniProt P01116, G12D); assay: HTRF assay, KRAS G12D interaction with SOS1; format: biochemical; conditions: bins <500 nM / 500 nM to 1000 nM, read-out: Inhibition of KRAS G12D (IC50)
T1 construct: made in house; host or cells: E. coli, e.g. BL21 (DE3)

[2] = target: T2, KRAS G12V (Homo sapiens, UniProt P01116, G12V); assay: HTRF assay, KRAS G12V interaction with SOS1; format: biochemical; conditions: bins <500 nM / 500 nM to 1000 nM, read-out: Inhibition of KRAS G12V (IC50)
T2 construct: made in house; host or cells: E. coli, e.g. BL21 (DE3)

[3] = target: T3, KRAS G12S (Homo sapiens, UniProt P01116, G12S); assay: HTRF assay, KRAS G12S interaction with SOS1; format: biochemical; conditions: bins <500 nM / 500 nM to 1000 nM, read-out: Inhibition of KRAS G12S (IC50)
T3 construct: made in house; host or cells: E. coli, e.g. BL21 (DE3)

[4] = test system: MiaPaca2 cells; assay: Ras cellular assay, growth of cells with K-Ras G12C mutation; format: cell-based; conditions: Homo sapiens, MIA PaCa-2; cell proliferation assay; bins ≤500 nM / >500 nM; read-out: Inhibition of MiaPaca2 Cells (IC50)
In short: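 Anchorage-independent growth: G12C-mutant MIA PaCa-2 plated in soft agar, time-zero plate read the next day when compound was dosed (final DMSO 0.3%). After growth to day 10, MTS-type absorbance at 490/660 nm relative to time zero gave IC50 via four-parameter fitting.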

[5] = target: T4, KRAS WT (Homo sapiens, UniProt P01116); assay: HTRF assay, wildtype KRAS interaction with SOS1; format: biochemical; conditions: bins <500 nM / 500 nM to 1000 nM, read-out: Inhibition of KRAS WT (IC50)
T4 construct: made in house; host or cells: E. coli, e.g. BL21 (DE3)
T4 sequence (P01116 1-188 isoform P01116-2): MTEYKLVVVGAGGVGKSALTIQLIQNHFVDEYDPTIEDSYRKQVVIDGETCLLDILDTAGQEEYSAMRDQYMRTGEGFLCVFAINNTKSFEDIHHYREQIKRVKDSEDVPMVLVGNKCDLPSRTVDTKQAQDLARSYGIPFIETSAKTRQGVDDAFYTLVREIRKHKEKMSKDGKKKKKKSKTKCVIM

T2 sequence (P01116 1-188 isoform P01116-2 G12V): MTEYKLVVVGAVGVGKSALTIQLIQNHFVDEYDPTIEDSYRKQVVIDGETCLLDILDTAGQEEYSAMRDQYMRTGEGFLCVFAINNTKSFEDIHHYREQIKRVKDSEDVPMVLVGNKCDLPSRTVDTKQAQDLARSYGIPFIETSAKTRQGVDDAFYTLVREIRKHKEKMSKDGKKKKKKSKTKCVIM
T1 sequence (P01116 1-188 isoform P01116-2 G12D): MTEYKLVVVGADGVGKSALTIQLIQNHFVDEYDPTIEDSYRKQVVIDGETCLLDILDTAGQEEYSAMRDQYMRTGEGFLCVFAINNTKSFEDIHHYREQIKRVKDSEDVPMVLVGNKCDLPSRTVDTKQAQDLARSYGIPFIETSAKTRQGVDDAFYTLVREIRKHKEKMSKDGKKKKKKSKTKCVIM
T3 sequence (P01116 1-188 isoform P01116-2 G12S): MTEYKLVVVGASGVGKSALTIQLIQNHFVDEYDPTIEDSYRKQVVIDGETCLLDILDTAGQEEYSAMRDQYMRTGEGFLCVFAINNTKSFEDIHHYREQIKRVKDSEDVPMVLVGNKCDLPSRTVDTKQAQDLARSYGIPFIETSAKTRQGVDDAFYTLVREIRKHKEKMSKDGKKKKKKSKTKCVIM

Structure (SMILES) | IC50 [1] [nM] | IC50 [2] [nM] | IC50 [3] [nM] | IC50 [4] [nM] | IC50 [5] [nM]
Cc1cn(C(=O)N2CC3(CCCCN(c4nc(OC[C@@]56CCCN5C[C@H](F)C6)nc5c(F)c(-c6ccc(F)c7sc(N)c(C#N)c67)c(Cl)cc45)C3)C2)c(C)n1 [Compound 138, 2-amino-4-(6-chloro-4-(2-(2,4-dimethyl-1H-imidazole-1-carbonyl)-2,6-diazaspiro[3.6]decan-6-yl)-8-fluoro-2-(((2R,7aS)-2-fluorotetrahydro-1H-pyrrolizin-7a(5H)-yl)methoxy)quinazolin-7-yl)-7-fluorobenzo[b]thiophene-3-carbonitrile] | < 500 | < 500 | < 500 | ≤ 500 | < 500
CCN(c1nc(OC[C@@]23CCCN2C[C@H](F)C3)nc2c(F)c(-c3ccc(F)c4sc(N)c(C#N)c34)c(Cl)cc12)[C@@H]1CCN(C(=O)n2cc(C)nc2C#N)[C@@H]1C [Compound 104, 1-((2R,3R)-3-((7-(2-amino-3-cyano-7-fluorobenzo[b]thiophen-4-yl)-6-chloro-8-fluoro-2-(((2R,7aS)-2-fluorotetrahydro-1H-pyrrolizin-7a(5H)-yl)methoxy)quinazolin-4-yl)(ethyl)amino)-2-methylpyrrolidine-1-carbonyl)-4-methyl-1H-imidazole-2-carbonitrile] | < 500 | < 500 | < 500 | ≤ 500 | < 500
C[C@@H]1[C@H](N(C)c2nc(OC[C@@]34CCCN3C[C@H](F)C4)nc3c(F)c(-c4ccc(F)c5sc(N)c(C#N)c45)c(Cl)cc23)CCN1C(=O)n1ccc(C#N)n1 [Compound 126, 1-((2R,3R)-3-((7-(2-amino-3-cyano-7-fluorobenzo[b]thiophen-4-yl)-6-chloro-8-fluoro-2-(((2R,7aS)-2-fluorotetrahydro-1H-pyrrolizin-7a(5H)-yl)methoxy)quinazolin-4-yl)(methyl)amino)-2-methylpyrrolidine-1-carbonyl)-1H-pyrazole-3-carbonitrile] | < 500 | < 500 | < 500 | ≤ 500 | < 500
CCN(c1nc(OC[C@@]23CCCN2C[C@H](F)C3)nc2c(F)c(-c3ccc(F)c4sc(N)c(C#N)c34)c(Cl)cc12)[C@@H]1CCN(C(=O)n2cnc(F)n2)[C@@H]1C [Compound 115, 2-amino-4-(6-chloro-4-(ethyl((2R,3R)-1-(3-fluoro-1H-1,2,4-triazole-1-carbonyl)-2-methylpyrrolidin-3-yl)amino)-8-fluoro-2-(((2R,7aS)-2-fluorotetrahydro-1H-pyrrolizin-7a(5H)-yl)methoxy)quinazolin-7-yl)-7-fluorobenzo[b]thiophene-3-carbonitrile] | < 500 | < 500 | < 500 | ≤ 500 | < 500
Cc1cn(C(=O)N(C)C2CN(c3nc(OC[C@@]45CCCN4C[C@H](F)C5)nc4c(F)c(-c5ccc(F)c6sc(N)c(C#N)c56)c(Cl)cc34)CC2F)cn1 (stereo partly drawn) [Compound 151, N-(1-((R)-7-(2-amino-3-cyano-7-fluorobenzo[b]thiophen-4-yl)-6-chloro-8-fluoro-2-(((2R,7aS)-2-fluorotetrahydro-1H-pyrrolizin-7a(5H)-yl)methoxy)quinazolin-4-yl)-4-fluoropyrrolidin-3-yl)-N,4-dimethyl-1H-imidazole-1-carboxamide] | < 500 | < 500 | < 500 | ≤ 500 | < 500
Cc1ncn(C(=O)N2C[C@]3(CCCCN(c4nc(OC[C@@]56CCCN5C[C@H](F)C6)nc5c(F)c(-c6ccc(F)c7sc(N)c(C#N)c67)c(Cl)cc45)C3)[C@H]2C)c1C [Compound 131, 2-amino-4-(6-chloro-4-((1R,4R)-2-(4,5-dimethyl-1H-imidazole-1-carbonyl)-1-methyl-2,6-diazaspiro[3.6]decan-6-yl)-8-fluoro-2-(((2R,7aS)-2-fluorotetrahydro-1H-pyrrolizin-7a(5H)-yl)methoxy)quinazolin-7-yl)-7-fluorobenzo[b]thiophene-3-carbonitrile] | < 500 | < 500 | < 500 | ≤ 500 | < 500

The next lines start with the values.

IC50 [1] [nM] | IC50 [2] [nM] | IC50 [3] [nM] | IC50 [4] [nM] | IC50 [5] [nM] | Structure (SMILES)
< 500 | < 500 | < 500 | ≤ 500 | < 500 | CCN(c1nc(OC[C@@]23CCCN2C[C@H](F)C3)nc2c(F)c(-c3ccc(F)c4sc(N)c(C#N)c34)c(Cl)cc12)[C@@H]1CCN(C(=O)n2cnc(OC)c2)[C@@H]1C [Compound 170, 2-amino-4-(6-chloro-4-(ethyl((2R,3R)-1-(4-methoxy-1H-imidazole-1-carbonyl)-2-methylpyrrolidin-3-yl)amino)-8-fluoro-2-(((2R,7aS)-2-fluorotetrahydro-1H-pyrrolizin-7a(5H)-yl)methoxy)quinazolin-7-yl)-7-fluorobenzo[b]thiophene-3-carbonitrile]
< 500 | < 500 | < 500 | ≤ 500 | < 500 | C[C@@H]1[C@H](N(C)c2nc(OC[C@@]34CCCN3C[C@H](F)C4)nc3c(F)c(-c4ccc(F)c5sc(N)c(C#N)c45)c(C(F)(F)F)cc23)CCN1C(=O)n1ccnc1 [Compound 200, 4-(4-(((2R,3R)-1-(1H-imidazole-1-carbonyl)-2-methylpyrrolidin-3-yl)(methyl)amino)-8-fluoro-2-(((2R,7aS)-2-fluorotetrahydro-1H-pyrrolizin-7a(5H)-yl)methoxy)-6-(trifluoromethyl)quinazolin-7-yl)-2-amino-7-fluorobenzo[b]thiophene-3-carbonitrile]
< 500 | < 500 | < 500 | ≤ 500 | < 500 | CCN(c1nc(OC[C@@]23CCCN2C[C@H](F)C3)nc2c(F)c(-c3ccc(F)c4sc(N)c(C#N)c34)c(C(F)(F)F)cc12)[C@@H]1CCN(C(=O)n2cc(C#N)nc2C)[C@@H]1C [Compound 159, 1-((2R,3R)-3-((7-(2-amino-3-cyano-7-fluorobenzo[b]thiophen-4-yl)-8-fluoro-2-(((2R,7aS)-2-fluorotetrahydro-1H-pyrrolizin-7a(5H)-yl)methoxy)-6-(trifluoromethyl)quinazolin-4-yl)(ethyl)amino)-2-methylpyrrolidine-1-carbonyl)-2-methyl-1H-imidazole-4-carbonitrile]
< 500 | < 500 | < 500 | ≤ 500 | < 500 | CN(c1nc(OC[C@@]23CCCN2C[C@H](F)C3)nc2c(F)c(-c3ccc(F)c4sc(N)c(C#N)c34)c(Cl)cc12)[C@H]1CCN(C(=O)n2cncn2)C1 [Compound 179, 4-(4-(((S)-1-(1H-1,2,4-triazole-1-carbonyl)pyrrolidin-3-yl)(methyl)amino)-6-chloro-8-fluoro-2-(((2R,7aS)-2-fluorotetrahydro-1H-pyrrolizin-7a(5H)-yl)methoxy)quinazolin-7-yl)-2-amino-7-fluorobenzo[b]thiophene-3-carbonitrile]
< 500 | < 500 | < 500 | ≤ 500 | < 500 | CC[C@H]1N(C(=O)n2cnc(C#N)c2C)C[C@]12CCCCN(c1nc(OC[C@@]34CCCN3C[C@H](F)C4)nc3c(F)c(-c4ccc(F)c5sc(N)c(C#N)c45)c(Cl)cc13)C2 [Compound 152, 1-((1R,4R)-6-(7-(2-amino-3-cyano-7-fluorobenzo[b]thiophen-4-yl)-6-chloro-8-fluoro-2-(((2R,7aS)-2-fluorotetrahydro-1H-pyrrolizin-7a(5H)-yl)methoxy)quinazolin-4-yl)-1-ethyl-2,6-diazaspiro[3.6]decane-2-carbonyl)-5-methyl-1H-imidazole-4-carbonitrile]
< 500 | < 500 | < 500 | ≤ 500 | < 500 | Cc1ncn(C(=O)N2CC[C@@H](N(C)c3nc(OC[C@@]45CCCN4C[C@H](F)C5)nc4c(F)c(-c5ccc(F)c6sc(N)c(C#N)c56)c(Cl)cc34)[C@H]2C)c1C [Compound 180, 2-amino-4-(6-chloro-4-(((2R,3R)-1-(4,5-dimethyl-1H-imidazole-1-carbonyl)-2-methylpyrrolidin-3-yl)(methyl)amino)-8-fluoro-2-(((2R,7aS)-2-fluorotetrahydro-1H-pyrrolizin-7a(5H)-yl)methoxy)quinazolin-7-yl)-7-fluorobenzo[b]thiophene-3-carbonitrile]
< 500 | < 500 | < 500 | ≤ 500 | < 500 | CC1C(N(C)c2nc(OC[C@@]34CCCN3C[C@H](F)C4)nc3c(F)c(-c4ccc(F)c5sc(N)c(C#N)c45)c(Cl)cc23)CCCN1C(=O)n1ccnc1 (stereo partly drawn) [Compound 187, 4-(4-((1-(1H-imidazole-1-carbonyl)-2-methylpiperidin-3-yl)(methyl)amino)-6-chloro-8-fluoro-2-(((2R,7aS)-2-fluorotetrahydro-1H-pyrrolizin-7a(5H)-yl)methoxy)quinazolin-7-yl)-2-amino-7-fluorobenzo[b]thiophene-3-carbonitrile]
